Values joined by “and” are separate entries in the source; they are usually repeats but may differ in a detail not shown here. Equal entries are not always repeated. Toxic doses and inconclusive results are not listed.
Test system: P388 leukemia ip, CD2F1 mice, survival T/C
Test: NCI In Vivo Anticancer Drug Screen. Data for tumor model P388 Leukemia (intraperitoneal) in CD2F1 (CDF1) mice
Settings: endpoint: median survival time, higher = longer survival
Method in brief: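 Mice carrying the transplanted tumor received test compound or vehicle. Survival was recorded in each group, and the value is the treated-group measurement divided by that of the vehicle-treated control group.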

[1] = dose: 50.0 mg/kg/injection, schedule: Q01DX009 (ip), vehicle: saline
[2] = dose: 100.0 mg/kg/injection, schedule: Q01DX009 (ip), vehicle: saline
[3] = dose: 200.0 mg/kg/injection, schedule: Q01DX009 (ip), vehicle: saline
[4] = dose: 50.0 mg/kg/injection, schedule: Q01DX005 (ip), vehicle: saline with Tween-80
[5] = dose: 100.0 mg/kg/injection, schedule: Q01DX005 (ip), vehicle: saline with Tween-80
[6] = dose: 50.0 mg/kg/injection, schedule: Q01DX005 (ip), vehicle: Klucel (hydroxypropylcellulose) (HPC)
[7] = dose: 100.0 mg/kg/injection, schedule: Q01DX005 (ip), vehicle: Klucel (hydroxypropylcellulose) (HPC)

CC(=O)Oc1ccc(OC(C)=O)c(CBr)c1CBr
T/C (dose: 25.0 mg/kg/injection, schedule: Q04DX002 (ip), vehicle: Klucel (hydroxypropylcellulose) (HPC)): 100 % of control | T/C (dose: 50.0 mg/kg/injection, schedule: Q04DX002 (ip), vehicle: Klucel (hydroxypropylcellulose) (HPC)): 95 % of control | T/C (dose: 100.0 mg/kg/injection, schedule: Q04DX002 (ip), vehicle: Klucel (hydroxypropylcellulose) (HPC)): 87 % of control and 93 % of control

CC(OC(=O)c1ccccc1C(=O)O)c1ccccc1 (stereo unspecified)
T/C (dose: 12.5 mg/kg/injection, schedule: Q01DX009 (ip), vehicle: saline): 91 % of control | T/C (dose: 25.0 mg/kg/injection, schedule: Q01DX009 (ip), vehicle: saline): 99 % of control and 101 % of control | T/C [1]: 101 % of control and 108 % of control and 98 % of control | T/C [2]: 104 % of control | T/C [3]: 186 % of control

O=C(NC1CCCN1C(=O)/C=C/c1ccccc1)NC1CCCN1C(=O)/C=C/c1ccccc1 (stereo unspecified)
T/C (dose: 60.0 mg/kg/injection, schedule: Q01DX005 (ip), vehicle: saline with Tween-80): 100 % of control | T/C (dose: 120.0 mg/kg/injection, schedule: Q01DX005 (ip), vehicle: saline with Tween-80): 88 % of control | T/C (dose: 240.0 mg/kg/injection, schedule: Q01DX005 (ip), vehicle: saline with Tween-80): 101 % of control

CCCCNC(=O)OCc1ccc(NCCN(CC)CC)c2c(=O)c3ccccc3sc12
T/C (dose: 1.56 mg/kg/injection, schedule: Q01DX005 (ip), vehicle: distilled water + Tween-80): 105 % of control and 97 % of control | T/C (dose: 3.12 mg/kg/injection, schedule: Q01DX005 (ip), vehicle: distilled water + Tween-80): 102 % of control and 112 % of control and 119 % of control | T/C (dose: 6.25 mg/kg/injection, schedule: Q01DX005 (ip), vehicle: distilled water + Tween-80): 101 % of control and 111 % of control

O=C1CCC2(c3ccccc3)CCCN=C2N1 (stereo unspecified)
T/C (dose: 100.0 mg/kg/injection, schedule: Q01DX001 (ip), vehicle: saline with Tween-80): 104 % of control | T/C (dose: 200.0 mg/kg/injection, schedule: Q01DX001 (ip), vehicle: saline with Tween-80): 99 % of control

C[C@]12C=CC(=O)C=C1CC[C@@H]1[C@@H]2CC[C@@]2(C)[C@H]1CC[C@]2(C)O
T/C [4]: 97 % of control | T/C [5]: 95 % of control | T/C (dose: 100.0 mg/kg/injection, schedule: Q01DX009 (ip), vehicle: Klucel (hydroxypropylcellulose) (HPC)): 110 % of control | T/C (dose: 200.0 mg/kg/injection, schedule: Q01DX009 (ip), vehicle: Klucel (hydroxypropylcellulose) (HPC)): 90 % of control

[Se]c1nccn2cnnc12
T/C (dose: 1.56 mg/kg/injection, schedule: Q01DX001 (ip), vehicle: saline): 99 % of control and 101 % of control | T/C (dose: 3.12 mg/kg/injection, schedule: Q01DX001 (ip), vehicle: saline): 100 % of control and 96 % of control | T/C (dose: 6.25 mg/kg/injection, schedule: Q01DX001 (ip), vehicle: saline): 99 % of control and 105 % of control | T/C (dose: 12.5 mg/kg/injection, schedule: Q01DX001 (ip), vehicle: saline): 103 % of control and 109 % of control

O=C1C2C3C4C5C(C2C5(Br)C32OCCO2)C14Br (stereo unspecified)
T/C (dose: 100.0 mg/kg/injection, schedule: Q04DX003 (ip), vehicle: Klucel (hydroxypropylcellulose) (HPC)): 106 % of control | T/C (dose: 200.0 mg/kg/injection, schedule: Q04DX003 (ip), vehicle: Klucel (hydroxypropylcellulose) (HPC)): 107 % of control | T/C (dose: 400.0 mg/kg/injection, schedule: Q04DX003 (ip), vehicle: Klucel (hydroxypropylcellulose) (HPC)): 113 % of control

COC(=O)Nc1nc2cc(Cl)c(Cl)cc2[nH]1
T/C (dose: 25.0 mg/kg/injection, schedule: Q01DX009 (ip), vehicle: saline with Tween-80): 103 % of control and 92 % of control | T/C (dose: 50.0 mg/kg/injection, schedule: Q01DX009 (ip), vehicle: saline with Tween-80): 105 % of control and 123 % of control and 124 % of control | T/C (dose: 100.0 mg/kg/injection, schedule: Q01DX009 (ip), vehicle: saline with Tween-80): 111 % of control | T/C (dose: 200.0 mg/kg/injection, schedule: Q01DX009 (ip), vehicle: saline with Tween-80): 114 % of control | T/C (dose: 400.0 mg/kg/injection, schedule: Q01DX009 (ip), vehicle: saline with Tween-80): 112 % of control | T/C (dose: 600.0 mg/kg/injection, schedule: Q01DX009 (ip), vehicle: saline with Tween-80): 119 % of control

Nc1ncnc2c1ccn2C1OC2COP(=O)(O)OC2C1O (stereo unspecified)
T/C (dose: 0.13 mg/kg/injection, schedule: Q03HX024 (ip), vehicle: saline): 90 % of control | T/C (dose: 0.25 mg/kg/injection, schedule: Q03HX024 (ip), vehicle: saline): 104 % of control | T/C (dose: 0.5 mg/kg/injection, schedule: Q03HX024 (ip), vehicle: saline): 100 % of control | T/C (dose: 1.0 mg/kg/injection, schedule: Q01DX009 (ip), vehicle: saline): 100 % of control | T/C (dose: 1.0 mg/kg/injection, schedule: Q03HX024 (ip), vehicle: saline): 122 % of control | T/C (dose: 1.0 mg/kg/injection, schedule: Q04DX003 (ip), vehicle: saline): 104 % of control | T/C (dose: 2.0 mg/kg/injection, schedule: Q01DX001 (ip), vehicle: saline): 100 % of control | T/C (dose: 2.0 mg/kg/injection, schedule: Q01DX009 (ip), vehicle: saline): 104 % of control | T/C (dose: 2.0 mg/kg/injection, schedule: Q04DX003 (ip), vehicle: saline): 100 % of control | T/C (dose: 4.0 mg/kg/injection, schedule: Q01DX001 (ip), vehicle: saline): 100 % of control | T/C (dose: 4.0 mg/kg/injection, schedule: Q04DX003 (ip), vehicle: saline): 104 % of control | T/C (dose: 8.0 mg/kg/injection, schedule: Q01DX001 (ip), vehicle: saline): 109 % of control | T/C (dose: 8.0 mg/kg/injection, schedule: Q01DX009 (ip), vehicle: saline): 95 % of control | T/C (dose: 8.0 mg/kg/injection, schedule: Q04DX003 (ip), vehicle: saline): 113 % of control | T/C (dose: 16.0 mg/kg/injection, schedule: Q01DX001 (ip), vehicle: saline): 118 % of control

CCOP(=O)(OCC)C1CCCN2CCc3cc(OC)c(OC)cc3C12 (stereo unspecified)
T/C [1]: 91 % of control | T/C [2]: 98 % of control | T/C [3]: 95 % of control

CC(C)C(N)P(=O)(O)O (stereo unspecified)
T/C (dose: 25.0 mg/kg/injection, schedule: Q01DX009 (ip), vehicle: suspension in saline): 96 % of control | T/C (dose: 50.0 mg/kg/injection, schedule: Q01DX009 (ip), vehicle: suspension in saline): 98 % of control | T/C (dose: 100.0 mg/kg/injection, schedule: Q01DX009 (ip), vehicle: suspension in saline): 99 % of control | T/C (dose: 200.0 mg/kg/injection, schedule: Q01DX009 (ip), vehicle: suspension in saline): 100 % of control

CSc1ncc(/C(C)=N\N=C(N)N)c(C)n1
T/C (dose: 15.0 mg/kg/injection, schedule: Q01DX005 (ip), vehicle: saline): 103 % of control and 97 % of control | T/C (dose: 30.0 mg/kg/injection, schedule: Q01DX005 (ip), vehicle: saline): 93 % of control and 98 % of control | T/C (dose: 60.0 mg/kg/injection, schedule: Q01DX005 (ip), vehicle: saline): 94 % of control and 97 % of control | T/C (dose: 120.0 mg/kg/injection, schedule: Q01DX005 (ip), vehicle: saline): 99 % of control

O=C1C=C2CCCCCCCCCCC2CC1 (stereo unspecified)
T/C [6]: 103 % of control | T/C [7]: 92 % of control | T/C (dose: 200.0 mg/kg/injection, schedule: Q01DX005 (ip), vehicle: Klucel (hydroxypropylcellulose) (HPC)): 92 % of control

COC(=O)c1ccc(O)c([N+](=O)[O-])c1
T/C (dose: 50.0 mg/kg/injection, schedule: Q04DX003 (ip), vehicle: saline with Tween-80): 100 % of control | T/C (dose: 100.0 mg/kg/injection, schedule: Q04DX003 (ip), vehicle: saline with Tween-80): 109 % of control | T/C (dose: 200.0 mg/kg/injection, schedule: Q04DX003 (ip), vehicle: saline with Tween-80): 100 % of control

CCOc1cc2cc(CCC#N)c(C)cc2cn1
T/C (dose: 12.5 mg/kg/injection, schedule: Q01DX009 (ip), vehicle: distilled water + Tween-80): 93 % of control | T/C (dose: 25.0 mg/kg/injection, schedule: Q01DX009 (ip), vehicle: distilled water + Tween-80): 87 % of control | T/C (dose: 50.0 mg/kg/injection, schedule: Q01DX009 (ip), vehicle: distilled water + Tween-80): 87 % of control

CS(=O)(=O)Nc1cc(C(O)CNC2CC2)ccc1O (stereo unspecified)
T/C (dose: 0.37 mg/kg/injection, schedule: Q01DX001 (ip), vehicle: saline): 96 % of control | T/C (dose: 0.75 mg/kg/injection, schedule: Q01DX001 (ip), vehicle: saline): 98 % of control | T/C (dose: 1.5 mg/kg/injection, schedule: Q01DX001 (ip), vehicle: saline): 100 % of control and 95 % of control

CCN1C(C)N1P(=S)(OC1CC(C)(C)N(O)C(C)(C)C1)OC1CC(C)(C)N(O)C(C)(C)C1 (stereo unspecified)
T/C [6]: 93 % of control | T/C [7]: 86 % of control

CCC(C)n1c(C)nc2c(N)cc(C(F)(F)F)cc21 (stereo unspecified)
T/C [4]: 97 % of control | T/C [5]: 91 % of control | T/C (dose: 200.0 mg/kg/injection, schedule: Q01DX005 (ip), vehicle: saline with Tween-80): 102 % of control

— PubChem BioAssay AID330 (DTP/NCI, 2004)
